From patent US7968107B2, “Oil-based suspension concentrates” (Bayer Cropscience AG, priority 2004, dated 2011)

Test: Penetrants at the level of the cuticle (desorption method, tracer mobility with and without additive)
Conditions: mobility of radiolabelled weak organic acid tracer in peach leaf cuticle; receptor buffer pH 7
Text: Additives which act as penetrants at the level of the cuticle may be referred to below as accelerator additives (cf. Schönherr and Baur, 1994, Pesticide Science 42, 185-208). The feature of accelerator additives is their ability to penetrate from the aqueous spray liquor and/or from the spray covering into the cuticle and thereby to increase the mobility of active substances in the cuticle. Other additives such as polyethylene glycol, in contrast, act only in the spray covering (via the liquid phase) or act only as wetting agents, such as sodium dodecyl sulphate, for example.
This test determines the influence of additives on the penetration properties of other substances at the level of the cuticle. The mobility of the test substance in the cuticle is measured with and without an additive, by way of a desorption method. The method is published in detail in the literature (Baur et al., 1997, Pesticide Science, 51, 131-152) and only the principles and any deviations are described below.
As a test substance with the function of a tracer a selection was made here of a radiolabelled weak organic acid. Plant material used comprised the enzymatically isolated leaf cuticles of the top face of peach leaves from outdoor trees. The cuticles were installed in specially manufactured stainless steel diffusion cells. The tracer, in a citrate buffer at a pH of 3 in the dissolved state, was applied to the side originally facing the inside of the leaf. This inner side readily takes up the small radioactive amount of the tracer in the undissociated acid form. Subsequently this inner side was covered and maintained at 100% atmospheric humidity. The morphological outer side of the leaf cuticle, normally exposed to the air, was then contacted with a buffer (pH 7), with the receptor solution, and the desorption was started. The penetrated acid form of the test substance is dissociated by the receptor and the desorption follows first-order kinetics. The desorption constant is proportional to the mobility of the tracer in the cuticle. […]

Substance	Average effect (ratio of desorption slopes with additive to without additive)
isotridecyl-(6) ethoxylate [Isotridecyl-(6) ethoxylate, open, reference compound]	42.3
CH3—(CH2)10—O—(-EO—)6—(—BO—)2—CH3 [Ie-1]	78.4
CH3—(CH2)8—O—(-EO—)8—(—BO—)2—CH3 [Ie-2]	89.1
